These results are taken from ChEMBL document CHEMBL3886696, “Compounds and methods for treating ocular diseases” (2016).

The target of test [1] is T1, Prostaglandin E2 receptor EP4 subtype (Homo sapiens, UniProt P35408). The experiment in a line: (§1) Radioligand Binding: HEK-293 cells stably expressing the human or feline FP receptor, or EP1, EP2, or EP4 receptors were washed with TME buffer, scraped from the bottom of the flasks, and homogenized for 30 sec using a Brinkman PT 10/35 polytron. TME buffer was added to achieve a final 40 ml volume in the centrifuge tubes (the composition of TME is 100 mM TRIS base, 20 mM MgCl2, […]; 10N HCl is added to achieve a pH of 7.4). The cell homogenate was centrifuged at 19000 r.p.m. for 20 min at 4 °C. using a Beckman Ti-60 rotor. The resultant pellet was resuspended in TME buffer to give a final 1 mg/ml protein concentration, as determined by Biorad assay. Radioligand binding competition assays vs. [3H-]17-phenyl PGF2a (5 nM) were performed in a 100 μl volume for 60 min. Binding reactions were started by adding plasma membrane fraction. The reaction was terminated by the addition of 4 ml ice-cold TRIS-HCl buffer and rapid filtration through glass fiber GF/B filters using a Brandel cell harvester. The filters were washed 3 times with ice-cold buffer and oven dried for one hour. [3H−] PGE2 (specific activity 180 Ci mmol) was used as the radioligand for EP receptors. [3H] 17-phenyl PGF2a was employed for FP receptor binding studies. Binding studies employing EP1, EP2, EP4 and FP receptors were performed in duplicate in at least three separate experiments. A 200 μl assay volume was used. […]. Format: cell-free.
T1 sequence (P35408 whole entry): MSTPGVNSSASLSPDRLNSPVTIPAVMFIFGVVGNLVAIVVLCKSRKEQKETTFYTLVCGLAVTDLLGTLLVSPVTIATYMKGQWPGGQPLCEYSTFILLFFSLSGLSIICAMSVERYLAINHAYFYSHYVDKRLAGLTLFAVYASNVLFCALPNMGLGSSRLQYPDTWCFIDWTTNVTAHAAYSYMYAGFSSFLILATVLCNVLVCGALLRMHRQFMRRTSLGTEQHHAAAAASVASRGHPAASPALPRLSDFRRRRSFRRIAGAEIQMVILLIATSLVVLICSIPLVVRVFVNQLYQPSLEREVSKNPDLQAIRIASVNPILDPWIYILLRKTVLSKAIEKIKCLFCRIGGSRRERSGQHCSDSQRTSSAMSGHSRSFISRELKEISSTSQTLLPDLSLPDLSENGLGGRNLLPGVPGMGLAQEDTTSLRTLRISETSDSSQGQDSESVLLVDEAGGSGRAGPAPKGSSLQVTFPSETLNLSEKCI

The target in test [2] is T2, Prostaglandin E2 receptor EP2 subtype (Homo sapiens, UniProt P43116). The test is described as §1. The class given is cell-free.
T2 sequence (P43116 whole entry): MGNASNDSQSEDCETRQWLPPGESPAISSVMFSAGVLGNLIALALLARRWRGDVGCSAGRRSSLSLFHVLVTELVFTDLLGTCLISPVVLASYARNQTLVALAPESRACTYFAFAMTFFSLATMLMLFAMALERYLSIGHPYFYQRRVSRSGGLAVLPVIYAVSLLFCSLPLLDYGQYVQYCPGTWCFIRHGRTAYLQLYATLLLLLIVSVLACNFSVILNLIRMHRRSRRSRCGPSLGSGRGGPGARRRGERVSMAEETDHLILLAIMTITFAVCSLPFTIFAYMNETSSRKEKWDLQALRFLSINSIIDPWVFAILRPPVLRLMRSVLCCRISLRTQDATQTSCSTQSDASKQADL
Test [3] deals with T1, Prostaglandin E2 receptor EP4 subtype. The experiment in a line: (§2) cAMP Assay: EP4 receptors couple to Gs and mediate elevations in cAMP concentration, although they do participate in other pathways as well. There are some redundancies in function between EP2 and EP4 receptors. For example, both receptors induce PGE2-mediated RANKL through cAMP. The class given is functional.

Test [4] deals with T2, Prostaglandin E2 receptor EP2 subtype. The description is as §2. The class given is functional.

In general, EC50 refers to the concentration at which the effect is half-maximal. `O=C(O)c1ccc(CCCN2[C@@H](/C=C/C(O)Cc3cccc(OC(F)(F)F)c3)CCS2(=O)=O)s1` (some centres undefined): the EC50 amounted to 53 nM in test [1], 96 nM in test [2], 1 nM in test [3] and 38 nM in test [4].
